The results in this text go back to patent US12338237B2, “Derivatives having 1,2,3,4-tetrahydronaphthalene moiety or pharmaceutically acceptable salt thereof and pharmaceutical compositions comprising the same” (YUHAN CORPORATION, priority 2019, dated 2025).

pIC50: −log10 of the molar value.

One experiment concerns GM1 production. Kind of experiment: cells. The note with it: Homo sapiens, Jurkat, 72 h. The format is cell-based.
For experiment [1], the target named is glucosylceramide synthase (GCS) (Homo sapiens (Human), UniProt Q16739). Put plainly: Evaluation of inhibitory activities against GCS (enzyme reaction with A549 cell lysate, NBD C6-ceramide, HPLC fluorescence). The format is biochemical. The note with it: GCS activity in A549 cell lysate, 37° C. for 90 minutes. An outline of the steps:
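Lysate of A549 cells in 50 mM HEPES pH 7.3 incubated with test compound and NBD C6-ceramide at 37 °C for 90 min; lipids extracted with chloroform/methanol and GlcCer and ceramide peaks quantified by HPLC fluorescence. Activity from GlcCer area fraction, normalised between DMSO and ibiglustat controls.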

glucosylceramide synthase (GCS), sequence (Q16739 whole entry, looked up): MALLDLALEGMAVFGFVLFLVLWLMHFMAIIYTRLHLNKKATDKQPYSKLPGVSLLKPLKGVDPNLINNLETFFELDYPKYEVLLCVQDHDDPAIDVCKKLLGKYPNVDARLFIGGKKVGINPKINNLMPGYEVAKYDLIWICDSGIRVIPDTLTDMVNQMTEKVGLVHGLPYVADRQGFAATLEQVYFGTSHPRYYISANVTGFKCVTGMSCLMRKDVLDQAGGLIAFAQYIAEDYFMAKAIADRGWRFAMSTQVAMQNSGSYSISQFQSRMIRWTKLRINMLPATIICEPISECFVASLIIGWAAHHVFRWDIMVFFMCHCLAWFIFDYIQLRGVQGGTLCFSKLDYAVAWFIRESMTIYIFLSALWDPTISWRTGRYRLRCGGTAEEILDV

In general, pIC50 refers to the negative decadic logarithm of the IC50, by convention in mol/L. Turning to `O=C(NC1CCCc2cc(-c3ccc(Cl)c(Cl)c3)ccc21)O[C@@H]1CN2CCC1CC2` (stereo partly drawn) [Example 22, (S)-quinuclidin-3-yl (6-(3,4-dichlorophenyl)-1,2,3,4-tetrahydronaphthalen-1-yl)carbamate], the pIC50 is 7.65 with GM1 production and 8.07 in experiment [1].

Regarding `O=C(NC1c2ccc(-c3ccc(F)cc3)cc2CCC12CC2)O[C@@H]1CN2CCC1CC2` (stereo partly drawn) [Example 186, (S)-quinuclidin-3-yl (6′-(4-fluorophenyl)-3′,4′-dihydro-1′H-spiro[cyclopropane-1,2′-naphthalen]-1′-yl)carbamate], the pIC50 in the experiment with GM1 production was 7.10; in experiment [1] it was 7.61.

As for `COc1ccc(-c2ccc3c(c2)CCC(C)(C)C3NC(=O)O[C@@H]2CN3CCC2CC3)c(Cl)c1` (stereo partly drawn) [Example 123, (S)-quinuclidin-3-yl (6-(2-chloro-4-methoxyphenyl)-2,2-dimethyl-1,2,3,4-tetrahydronaphthalen-1-yl)carbamate], the negative logarithm of the IC50 (pIC50) in the experiment on GM1 production is 8.84; in experiment [1], 9.01.

`CC1(C)CCc2cc(-c3ccc(F)c(F)c3F)ccc2C1NC(=O)O[C@@H]1CN2CCC1CC2` (stereo partly drawn) [Example 109, (S)-quinuclidin-3-yl (2,2-dimethyl-6-(2,3,4-trifluorophenyl)-1,2,3,4-tetrahydronaphthalen-1-yl)carbamate]: the negative-log IC50 (pIC50) with GM1 production was 8.53; in experiment [1], 8.54.

For `CC(C)c1ccc(-c2ccc3c(c2)CCC2(CC2)C3NC(=O)O[C@@H]2CN3CCC2CC3)cc1` (stereo partly drawn) [Example 223, (S)-quinuclidin-3-yl (6′-(4-isopropylphenyl)-3′,4′-dihydro-1′H-spiro[cyclopropane-1,2′-naphthalen]-1′-yl)carbamate], the pIC50 in the experiment with GM1 production is 7.62; in experiment [1], 8.62.

Turning to `CCCCOc1c(C)cc(-c2ccc3c(c2)CCC(C)(C)C3NC(=O)O[C@@H]2CN3CCC2CC3)cc1C` (stereo partly drawn) [Example 147, (S)-quinuclidin-3-yl (6-(4-butoxy-3,5-dimethylphenyl)-2,2-dimethyl-1,2,3,4-tetrahydronaphthalen-1-yl)carbamate], the values for the pIC50 (with GM1 production; in experiment [1]) were 10.00 and 9.00, respectively.

For the compound `CC1(C)CCc2cc(-c3cc(Cl)cc(Cl)c3)ccc2C1NC(=O)O[C@@H]1CN2CCC1CC2` (stereo partly drawn) [Example 107, (S)-quinuclidin-3-yl (6-(3,5-dichlorophenyl)-2,2-dimethyl-1,2,3,4-tetrahydronaphthalen-1-yl)carbamate], the results for the pIC50 (with GM1 production; in experiment [1]) were 8.19 and 8.23, respectively.

For the compound `CC(=O)c1sccc1-c1ccc2c(c1)CCC(C)(C)C2NC(=O)O[C@@H]1CN2CCC1CC2` (stereo partly drawn) [Example 150, (S)-quinuclidin-3-yl (6-(2-acetylthiophen-3-yl)-2,2-dimethyl-1,2,3,4-tetrahydronaphthalen-1-yl)carbamate], the pIC50 with GM1 production is 7.77; in experiment [1], 8.06.

`CC1(C)CCc2ccc(-c3ccc(F)cc3)cc2C1NC(=O)O[C@@H]1CN2CCC1CC2` (stereo partly drawn) [Example 151, (S)-quinuclidin-3-yl (7-(4-fluorophenyl)-2,2-dimethyl-1,2,3,4-tetrahydronaphthalen-1-yl)carbamate]: the pIC50 is 7.48 in the experiment on GM1 production and 8.14 in experiment [1].

Regarding `CC1(C)CCc2cc(-c3ccc(OC(F)(F)F)cc3)ccc2C1NC(=O)O[C@@H]1CN2CCC1CC2` (stereo partly drawn) [Example 89, (S)-quinuclidin-3-yl (2,2-dimethyl-6-(4-(trifluoromethoxy)phenyl)-1,2,3,4-tetrahydronaphthalen-1-yl)carbamate], the pIC50 in the experiment on GM1 production is 8.11; in experiment [1], 8.66.

On to `O=C(NC1CCCc2cc(-c3ccc(N4CCOCC4)cc3)ccc21)O[C@@H]1CN2CCC1CC2` (stereo partly drawn) [Example 45, (S)-quinuclidin-3-yl (6-(4-morpholinophenyl)-1,2,3,4-tetrahydronaphthalen-1-yl)carbamate], for which the pIC50 in the experiment with GM1 production is 6.82; in experiment [1] it was 7.67.

As to `O=C(NC1CCCc2ccc(-c3cc(F)cc(F)c3)cc21)O[C@@H]1CN2CCC1CC2` (stereo partly drawn) [Example 68, (S)-quinuclidin-3-yl (7-(3,5-difluorophenyl)-1,2,3,4-tetrahydronaphthalen-1-yl)carbamate], the pIC50 in the experiment on GM1 production was 6.56; in experiment [1], 7.20.

On to `CCCOc1ccc(-c2ccc3c(c2)C(NC(=O)O[C@@H]2CN4CCC2CC4)CCC3)cc1` (stereo partly drawn) [Example 82, (S)-quinuclidin-3-yl (7-(4-propoxyphenyl)-1,2,3,4-tetrahydronaphthalen-1-yl)carbamate], for which the pIC50 was 7.84 with GM1 production and 7.52 in experiment [1].

Regarding `CC1(C)CCc2ccc(-c3ccccc3C(F)(F)F)cc2C1NC(=O)O[C@@H]1CN2CCC1CC2` (stereo partly drawn) [Example 161, (S)-quinuclidin-3-yl (2,2-dimethyl-7-(2-(trifluoromethyl)phenyl)-1,2,3,4-tetrahydronaphthalen-1-yl)carbamate], the negative-log IC50 (pIC50) in the experiment with GM1 production was 6.92; in experiment [1], 7.58.

Consider `CCOc1ccc(-c2ccc3c(c2)CCC2(CC2)C3NC(=O)O[C@@H]2CN3CCC2CC3)cc1` (stereo partly drawn) [Example 217, (S)-quinuclidin-3-yl (6′-(4-ethoxyphenyl)-3′,4′-dihydro-1′H-spiro[cyclopropane-1,2′-naphthalen]-1′-yl)carbamate], for which the values for the pIC50 (with GM1 production; in experiment [1]) were 7.80 and 9.00, respectively.

Consider `CC1(C)CCc2cc(-c3cccc(F)c3)ccc2C1NC(=O)O[C@@H]1CN2CCC1CC2` (stereo partly drawn) [Example 90, (S)-quinuclidin-3-yl (6-(3-fluorophenyl)-2,2-dimethyl-1,2,3,4-tetrahydronaphthalen-1-yl)carbamate], for which the pIC50 with GM1 production was 8.31; in experiment [1], 9.00.
